Our source for the IC50 values is ChEMBL document CHEMBL1141704, “Substituted ajoenes as novel anti-cancer agents” (Bioorg Med Chem Lett, 2008).

The test system of the assay is Fibroblast. Description: Anticancer activity against cobalt radiation CT-1 transformed fibroblasts. The format is functional, cell-based.
On to `C=CCSS/C=C/C[S+]([O-])Cc1ccc(OC)cc1` (stereo not drawn), for which the IC50 was 11.2 µM. Regarding `C=CCSS/C=C/C[S+]([O-])C(C)(C)C` (stereo not drawn), the half-inhibitory concentration (IC50) turned out to be 33.1 µM.

For `C=CCSS/C=C/C[S+]([O-])CCCOCc1ccc(OC)cc1` (stereo not drawn), the half-inhibitory concentration (IC50) amounted to 23.5 µM.

In turn, `C=CCSS/C=C\C[S+]([O-])CC=C` (stereo not drawn) [(Z)-Ajoene] returned a half-inhibitory concentration (IC50) of 15.5 µM. Compound `C=CCSS/C=C/C[S+]([O-])CC=C` (stereo not drawn) [AJOENE] registered an IC50 of 17.6 µM.

For `C=CCSS/C=C\C[S+]([O-])CCCN1C(=O)c2ccccc2C1=O` (stereo not drawn), the midpoint of inhibition, the IC50, lay at 34.6 µM. To `C=CCSS/C=C/C[S+]([O-])CCC` (stereo not drawn) belongs 26.7 µM; to `C=CCSS/C=C\C[S+]([O-])CCCO` (stereo not drawn), 22.8 µM; to `C=CCSS/C=C/C[S+]([O-])CCCO` (stereo not drawn), 23.1 µM. In the case of `C=CCSS/C=C/C[S+]([O-])Cc1ccccc1` (stereo not drawn) it was 16.6 µM; in that of `C=CCSS/C=C/C[S+]([O-])CCCN1C(=O)c2ccccc2C1=O` (stereo not drawn), 95.9 µM; in that of `C=CCSS/C=C\C[S+]([O-])CCC` (stereo not drawn), 17 µM. `C=CCSS/C=C\C[S+]([O-])CCCOCc1ccc(OC)cc1` (stereo not drawn) registered an IC50 of 21.7 µM.

Usually IC50 stands for the midpoint of a concentration-inhibition curve. Read a low IC50 as greater potency.
